Experimental data as given in ChEMBL document CHEMBL2331256, “Spiro heterocycles as potential inhibitors of SIRT1: Pd/C-mediated synthesis of novel N-indolylmethyl spiroindoline-3,2'-quinazolines” (Bioorg Med Chem Lett, 2013).

Tests used:
Saccharomyces cerevisiae = assay: Cytotoxicity against yeast at 50 uM; format: organism-based; details: in vivo
[1] = target: NAD-dependent histone deacetylase SIR2 (Saccharomyces cerevisiae S288c) (UniProt P06700); assay: Inhibition of Sir 2 protein mediated transcriptional silencing at the telomeric locus in yeast at 50 uM after 24 to 48 hrs by URA3 reporter gene assay
NAD-dependent histone deacetylase SIR2 (Saccharomyces cerevisiae S288c), sequence (P06700 whole entry): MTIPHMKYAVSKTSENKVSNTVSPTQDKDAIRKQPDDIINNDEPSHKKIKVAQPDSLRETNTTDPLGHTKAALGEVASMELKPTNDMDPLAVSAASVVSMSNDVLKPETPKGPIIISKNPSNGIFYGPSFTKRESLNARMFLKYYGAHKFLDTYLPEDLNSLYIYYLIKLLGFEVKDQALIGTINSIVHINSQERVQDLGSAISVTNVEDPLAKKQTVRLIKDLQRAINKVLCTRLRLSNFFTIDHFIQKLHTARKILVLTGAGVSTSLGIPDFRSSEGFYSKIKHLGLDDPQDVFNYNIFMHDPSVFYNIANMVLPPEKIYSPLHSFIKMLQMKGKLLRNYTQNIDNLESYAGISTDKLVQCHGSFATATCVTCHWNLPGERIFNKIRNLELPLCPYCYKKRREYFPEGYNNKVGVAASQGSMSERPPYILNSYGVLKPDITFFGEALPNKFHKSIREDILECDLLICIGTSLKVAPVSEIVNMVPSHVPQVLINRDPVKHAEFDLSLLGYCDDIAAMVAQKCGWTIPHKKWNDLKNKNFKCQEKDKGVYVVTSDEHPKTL

[2] = target: NAD-dependent histone deacetylase SIR2 (Saccharomyces cerevisiae S288c) (UniProt P06700); assay: Inhibition of Sir 2 protein mediated transcriptional silencing at the telomeric locus in yeast at 10 uM after 24 to 48 hrs by URA3 reporter gene assay
[3] = target: NAD-dependent histone deacetylase SIR2 (Saccharomyces cerevisiae S288c) (UniProt P06700); assay: Inhibition of Sir 2 protein mediated transcriptional silencing at the telomeric locus in yeast after 24 to 48 hrs by URA3 reporter gene assay
[4] = target: NAD-dependent histone deacetylase SIR2 (Saccharomyces cerevisiae S288c) (UniProt P06700); assay: Inhibition of Sir 2 protein mediated transcriptional silencing at the telomeric locus in yeast at 1 uM after 24 to 48 hrs by URA3 reporter gene assay
[5] = target: NAD-dependent histone deacetylase SIR2 (Saccharomyces cerevisiae S288c) (UniProt P06700); assay: Inhibition of Sir 2 protein mediated transcriptional silencing at the telomeric locus in yeast at 30 uM after 24 to 48 hrs by URA3 reporter gene assay
[6] = target: NAD-dependent histone deacetylase SIR2 (Saccharomyces cerevisiae S288c) (UniProt P06700); assay: Inhibition of Sir 2 protein mediated transcriptional silencing at the telomeric locus in yeast at 100 uM after 24 to 48 hrs by URA3 reporter gene assay

Structure (SMILES)	inhibition [1] [%]	inhibition [2] [%]	inhibition [3]	inhibition [4] [%]	inhibition [5] [%]	inhibition [6] [%]	Activity (Saccharomyces cerevisiae)
CS(=O)(=O)n1c(CN2C(=O)C3(NC(=O)c4ccccc4N3)c3ccccc32)cc2ccccc21 (stereo not drawn)	13.9	–	–	–	–	–	Non-toxic
CS(=O)(=O)n1c(CN2C(=O)C3(NC(=O)c4ccccc4N3)c3ccccc32)cc2cc(Br)ccc21 (stereo not drawn)	38.5	–	–	–	–	–	Non-toxic
COc1ccc2c(c1)cc(CN1C(=O)C3(NC(=O)c4ccccc4N3)c3ccccc31)n2S(C)(=O)=O (stereo not drawn)	39	20	Dose-dependent effect	9	29	67	Non-toxic
Cc1ccc2c(c1)cc(CN1C(=O)C3(NC(=O)c4ccccc4N3)c3ccccc31)n2S(C)(=O)=O (stereo not drawn)	40.9	–	–	–	–	–	Non-toxic
CS(=O)(=O)n1c(CN2C(=O)C3(NC(=O)c4ccccc4N3)c3ccccc32)cc2cc(Cl)ccc21 (stereo not drawn)	30.9	–	–	–	–	–	Non-toxic
CS(=O)(=O)n1c(CN2C(=O)C3(NC(=O)c4ccccc4N3)c3ccccc32)cc2cc(F)ccc21 (stereo not drawn)	30.3	–	–	–	–	–	Non-toxic

More lines, main results first:

inhibition [1] [%]	inhibition [2] [%]	inhibition [3]	inhibition [4] [%]	inhibition [5] [%]	inhibition [6] [%]	Structure (SMILES)	Activity (Saccharomyces cerevisiae)
16.4	–	–	–	–	–	Cc1ccc(S(=O)(=O)n2c(CN3C(=O)C4(NC(=O)c5ccccc5N4)c4ccccc43)cc3cc(Br)ccc32)cc1 (stereo not drawn)	Non-toxic
15.2	–	–	–	–	–	Cc1ccc(S(=O)(=O)n2c(CN3C(=O)C4(NC(=O)c5ccccc5N4)c4ccccc43)cc3cc(F)ccc32)cc1 (stereo not drawn)	Non-toxic
38.4	–	–	–	–	–	Cc1ccc(S(=O)(=O)n2c(CN3C(=O)C4(NC(=O)c5ccccc5N4)c4ccccc43)cc3cc(C(F)(F)F)ccc32)cc1 (stereo not drawn)	Non-toxic
39.6	–	–	–	–	–	CS(=O)(=O)n1c(CN2C(=O)C3(NC(=O)c4ccccc4N3)c3ccccc32)cc2cc(C(F)(F)F)ccc21 (stereo not drawn)	Non-toxic
41	25	Dose-dependent effect	12	32	61	COc1ccc2c(c1)cc(CN1C(=O)C3(NC(=O)c4ccccc4N3)c3ccccc31)n2S(=O)(=O)c1ccc(C)cc1 (stereo not drawn)	Non-toxic
40.9	30	Dose-dependent effect	18	37	56	Cc1ccc(S(=O)(=O)n2c(CN3C(=O)C4(NC(=O)c5ccccc5N4)c4ccccc43)cc3cc(Cl)ccc32)cc1 (stereo not drawn)	Non-toxic
36.5	–	–	–	–	–	Cc1ccc(S(=O)(=O)n2c(CN3C(=O)C4(NC(=O)c5ccccc5N4)c4ccccc43)cc3ccccc32)cc1 (stereo not drawn)	Non-toxic
1.2	–	–	–	–	–	Cc1ccc(S(=O)(=O)n2c(CN3C(=O)C4(NC(=O)c5ccccc5N4)c4ccccc43)cc3cc(C)ccc32)cc1 (stereo not drawn)	Non-toxic
